From patent US7276339B2 (H. Lundbeck A/S, priority 1998, dated 2007)
Like-named read-outs stand apart in the source and are kept apart here. Non-standard residues stand in square brackets, D forms with d. Residues, ends and D or L forms follow the SMILES beside them. No end group written: not given here. *: point of attachment. NMeF = CN[C@@H](Cc1ccccc1)C(=O)O; X1 = O=C(Cc1ccc(O)cc1)*

B1: CCK: unrelated neuropeptide (peptide, UniProt P06307 21-115, looked up)
Cholecystokinin: QPVPPADPAGSGLQRAEEAPRRQLRVSQRTDGESRAHLGALLARYIQQARKAPSGRMSIVKNLQNLDPSHRISDRDYMGWMDFGRRSAEEYEYPS
modifications: Cholecystokinin
notes: unrelated neuropeptide

Key:
NPFF1 (SNORF2) = molecular target: T1, NPFF1 (SNORF2) (Rattus norvegicus, UniProt Q9EP86); experiment: Voltage-clamp electrophysiology, Xenopus oocytes injected with SNORF2 (NPFF1) and chimeric Gαq/z RNA; type: cell-based; conditions: for activation of oocytes injected with SNORF2 synthetic RNA: concentration not given; for inward current response: 1 μM, oocytes with SNORF2 + Gαq/z, holding potential −80 mV
T1 construct: linearized plasmids or PCR products containing the complete coding region of the genes; expressed in transfected cells; host or cells: Xenopus laevis oocytes injected with synthetic RNA (T7 transcripts)
T1 sequence (Q9EP86 whole entry): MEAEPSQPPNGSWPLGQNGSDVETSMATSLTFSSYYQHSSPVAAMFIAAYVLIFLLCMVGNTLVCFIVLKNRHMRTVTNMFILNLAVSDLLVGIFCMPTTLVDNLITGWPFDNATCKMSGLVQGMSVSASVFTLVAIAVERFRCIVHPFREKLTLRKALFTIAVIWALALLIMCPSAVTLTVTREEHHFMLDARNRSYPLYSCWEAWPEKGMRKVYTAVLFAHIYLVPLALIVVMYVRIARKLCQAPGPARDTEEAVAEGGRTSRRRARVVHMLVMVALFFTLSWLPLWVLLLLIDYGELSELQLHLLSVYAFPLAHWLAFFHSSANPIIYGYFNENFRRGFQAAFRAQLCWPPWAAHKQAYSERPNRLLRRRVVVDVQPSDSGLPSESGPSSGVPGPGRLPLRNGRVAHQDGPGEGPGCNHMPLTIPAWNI
Procedure: Oocytes were harvested from Xenopus laevis and injected with mRNA transcripts as previously described (Quick and Lester, 1994; Smith et al., 1997). […] Three to eight hours prior to recording, oocytes were injected with 500 pg Gαq/z mRNA in order to observe coupling to Ca^++ activated Cl^− currents. Dual electrode voltage clamp (Axon Instruments Inc.) was performed using 3 M KCl-filled glass microelectrodes having resistances of 1-2 Mohm. Unless otherwise specified, oocytes were voltage clamped at a holding potential of −80 mV. During recordings, oocytes were bathed in continuously flowing (1-3 ml/min) medium containing 96 mM NaCl, 2 mM KCl, 1.8 mM CaCl2, 1 mM MgCl2, and 5 mM HEPES, pH 7.5 (ND96). Drugs were applied either by local perfusion from a […] glass capillary tube fixed at a distance of 0.5 mm from the oocyte, or by switching from a series of gravity fed perfusion lines.
Heterologous expression of GPCRs in Xenopus oocytes has been widely used to determine the identity of signaling pathways activated by agonist stimulation (Gundersen et al., 1983; Takahashi et al., 1987). Activation of the phospholipase C (PLC) pathway is assayed by applying test compound in ND96 solution to oocytes previously injected with mRNA for the mammalian receptor and observing inward currents at a holding potential of −80 mV. The appearance of currents that reverse at −25 mV and display other properties of the Ca^++-activated Cl^− (chloride) channel is indicative of mammalian receptor-activation of PLC and release of IP3 and intracellular Ca^++.

[1] = molecular target: rat spinal cord membrane receptor; experiment: [125I]D-Tyr-NPFF radioligand binding, rat spinal cord membranes; conditions: competition of [125I]D-Tyr-NPFF binding; * = differs from NPFF1
Description: The binding profile of rat NPFF1 was compared to that of rat spinal cord membranes. […] (See * Table 2).

rat NPFF1 receptor = rat NPFF1 receptor (Rattus norvegicus, UniProt Q9EP86); experiment: [125I]D-Tyr-NPFF radioligand binding, membranes of COS-7 cells transiently expressing cloned rat NPFF1; parameters: expressed in transfected cells; host or cells: COS-7 (transient)
rat NPFF1 receptor, sequence (Q9EP86 whole entry): as above
Procedure: Transfected cells from culture flasks are scraped into 5 ml of 20 mM Tris-HCl, 5 mM EDTA, pH 7.5, and lysed by sonication. The cell lysates are centrifuged at 1000 rpm for 5 min. at 4° C., and the supernatant is centrifuged at 30,000×g for 20 min. at 4° C. […] Optimal membrane suspension dilutions, defined as the protein concentration required to bind less than 10% of the added radioligand, […], unlabeled compounds, and binding buffer to a final volume of 250 μl. In equilibrium saturation binding assays membrane preparations are incubated in the presence of increasing concentrations of [^3H]-labeled compound. […] Competition assay: 50 pM radioligand, 10-12 points. Binding reaction mixtures are incubated for 2 hr at 25° C., and the reaction stopped by filtration through a double layer of GF filters treated with 0.1% polyethyleneimine, using a cell harvester. Wash buffer: 50 mM Tris-HCl, 0.1% BSA. Radioactivity may be measured by scintillation counting and data are analyzed by a computerized non-linear regression program. Non-specific binding is defined as the amount of radioactivity remaining after incubation of membrane protein in the presence of 1 μM final concentration […]. Protein concentration may be measured by the Bradford method using Bio-Rad Reagent, with bovine serum albumin as a standard.
Cos-7 cells transiently expressing the gene encoding the novel rat NPFF1 receptor were used for pharmacological evaluation.

[2] = competition of [125I]D-Tyr-NPFF binding, COS-7 membranes
[3] = competition of [125I]D-Tyr-NPFF binding, COS-7 membranes, read-out: pKi for cloned rat NPFF1 receptor binding in COS-7 cells, MEAN (converted)

Molecule	pKi for rat spinal cord membrane receptor binding, MEAN [1]	Ki (rat NPFF1 receptor; [3]) [µM]	other results
orexin B			activation of oocytes injected with SNORF2 synthetic RNA (NPFF1 (SNORF2)): failed to activate
H-PDVDHVFLRF-NH2 [SchistFLRF]	6.39		
COc1ccc2c(c1)[nH]c1c(C)nccc12 [harmine]			Ki (rat NPFF1 receptor): ≥ 10 µM
CC(C)C[C@H](NC(=O)[C@H](CCCCN)NC(=O)[C@H](CCCN=C(N)N)NC(=O)[C@H](C)NC(=O)[C@H](CO)NC(=O)[C@H](CCCCN)NC(=O)[C@H](CCCN=C(N)N)NC(=O)[C@H](C)NC(=O)CNC(=O)[C@@H](NC(=O)[C@H](Cc1ccccc1)NC(=O)CNC(=O)CNC(=O)[C@@H](N)Cc1ccccc1)[C@@H](C)O)C(=O)N[C@@H](C)C(=O)N[C@@H](CC(N)=O)C(=O)N[C@@H](CCC(N)=O)C(=O)O [nociceptin]			Ki (rat NPFF1 receptor): ≥ 10 µM
CC(C)C[C@H](NC(=O)[C@H](Cc1ccccc1)NC(=O)Cc1ccc(O)cc1)C(=O)N[C@@H](Cc1ccccc1)C(=O)N[C@@H](CCC(N)=O)C(=O)N1CCC[C@H]1C(=O)N[C@@H](CCC(N)=O)C(=O)N[C@@H](CCCNC(=N)N)C(N)=O [desamino-nor-Y8Ra] (X1-FLFQPQR-NH2)	7.51		pKi for cloned rat NPFF1 receptor binding in COS-7 cells, MEAN (rat NPFF1 receptor; [2]): 7.27
CCNC(C)Cc1cccc(C(F)(F)F)c1 (stereo not drawn) [fenfluramine]		≥ 10	
N=C(N)NCCC[C@H](N)C(=O)O [L-arginine]		≥ 10	
N=C(N)NCCC[C@@H](N)C(=O)O [D-arginine]		≥ 10	
N=C(N)NCCC[C@H](NC(=O)[C@H](Cc1ccccc1)NC(=O)[C@@H](N)Cc1ccccc1)C(=O)N[C@@H](Cc1ccccc1)C(N)=O [FFRF] (H-FFRF-NH2; N-terminus and C-terminus assumed)	8.98		pKi for cloned rat NPFF1 receptor binding in COS-7 cells, MEAN (rat NPFF1 receptor; [2]): 8
Dynorphin A1-13	*5.700		
CC(C)C[C@@H](NC(=O)[C@H](N)Cc1ccc(O)cc1)C(=O)N[C@H](Cc1ccccc1)C(=O)N[C@@H](CCC(N)=O)C(=O)N1CCC[C@H]1C(=O)N[C@@H](CCC(N)=O)C(=O)N[C@@H](CCCNC(=N)N)C(=O)N[C@@H](Cc1ccccc1)C(N)=O [(3D)Y8Fa] (H-[dY][dL][dF]QPQRF-NH2; N-terminus assumed)	9.123		
NCCc1c[nH]c2ccc(O)cc12 [5-HT]			activation of oocytes injected with SNORF2 synthetic RNA (NPFF1 (SNORF2)): failed to activate
PDKDFIVNPSDLVLDNKAALRDYLRQINEYFAIIGRPRF-NH2 (C-terminus assumed) [Neuropeptide F]	*8.100		pKi for cloned rat NPFF1 receptor binding in COS-7 cells, MEAN (rat NPFF1 receptor; [2]): 6.11
CNCCCN1c2ccccc2CCc2ccccc21 [desipramine]		≥ 10	
H-KHQYLRF-NH2 [AF-2, H-Lys-His-Gln-Tyr-Leu-Arg-Phe-NH2]	*7.965	0.0948	
AGEGLSSPYWSLAAPQRF-NH2 [[Y^9]A18Fa]	*8.502		inward current response (NPFF1 (SNORF2)): displayed activity
melanin concentrating hormone			activation of oocytes injected with SNORF2 synthetic RNA (NPFF1 (SNORF2)): failed to activate
CSCC[C@H](NC(=O)[C@@H]1CCCN1)C(=O)N[C@@H](CCCNC(=N)N)C(=O)N[C@@H](Cc1ccccc1)C(N)=O [PMRFa] (H-PMRF-NH2; N-terminus assumed)	9.37		
C[C@@H](O)[C@H](NC(=O)[C@@H](N)Cc1ccccc1)C(=O)N[C@@H](CCCNC(=N)N)C(=O)N[C@@H](Cc1ccccc1)C(N)=O [FTRF] (H-FTRF-NH2; N-terminus and C-terminus assumed)	8.16		pKi for cloned rat NPFF1 receptor binding in COS-7 cells, MEAN (rat NPFF1 receptor; [2]): 7.87
Cc1nc2sccn2c(=O)c1CCN1CCC(=C(c2ccc(F)cc2)c2ccc(F)cc2)CC1 [ritanserine]		≥ 10	
CC(C)C[C@@H](NC(=O)[C@H](N)Cc1ccc(O)cc1)C(=O)N(C)[C@@H](Cc1ccccc1)C(=O)N[C@@H](CCC(N)=O)C(=O)N1CCC[C@H]1C(=O)N[C@@H](CCC(N)=O)C(=O)N[C@@H](CCCNC(=N)N)C(=O)N[C@@H](Cc1ccccc1)C(N)=O [(2DME)Y8Fa] (H-[dY][dL][NMeF]QPQRF-NH2; N-terminus assumed)	9.57		pKi for cloned rat NPFF1 receptor binding in COS-7 cells, MEAN (rat NPFF1 receptor; [2]): 9.2
C[C@@H]1CN([C@H]2CC[C@](C#N)(c3ccc(F)cc3)CC2)CC[C@]1(C(=O)O)c1ccccc1 [levocabastine]		≥ 10	
CSCC[C@H](NC(=O)[C@H](Cc1ccc(OS(=O)(=O)O)cc1)NC(=O)[C@@H](N)CC(=O)O)C(=O)NCC(=O)N[C@@H](Cc1c[nH]c2ccccc12)C(=O)N[C@@H](CCSC)C(=O)N[C@@H](CC(=O)O)C(=O)N[C@@H](Cc1ccccc1)C(N)=O [CCK8]			pKi for cloned rat NPFF1 receptor binding in COS-7 cells, MEAN (rat NPFF1 receptor; [2]): ≤ 5
CC(C)C[C@@H](NC(=O)[C@H](N)Cc1ccc(O)cc1)C(=O)N[C@@H](Cc1ccccc1)C(=O)N[C@@H](CCC(N)=O)C(=O)N1CCC[C@H]1C(=O)N[C@@H](CCC(N)=O)C(=O)N[C@@H](CCCNC(=N)N)C(=O)N[C@@H](Cc1ccccc1)C(N)=O [(2D)Y8Fa] (H-[dY][dL]FQPQRF-NH2; N-terminus assumed)	*9.212		pKi for cloned rat NPFF1 receptor binding in COS-7 cells, MEAN (rat NPFF1 receptor; [2]): 8.33
H-KNQFIRF-NH2 [AF-1, H2N-Lys-Asn-Gln-Phe-Ile-Arg-Phe-NH2]	*7.563	0.232	
NCCc1ccc(O)c(O)c1 [dopamine]		≥ 10	
TEPGLEEVGEIEQKQLQ [nocistatin]			pKi for cloned rat NPFF1 receptor binding in COS-7 cells, MEAN (rat NPFF1 receptor; [2]): ≤ 5
YLFQPQRF-NH2 [Y8Fa]	*9.189		inward current response (NPFF1 (SNORF2)): displayed activity
B1			activation of oocytes injected with SNORF2 synthetic RNA (NPFF1 (SNORF2)): failed to activate
